Results on 38 compounds are retold here after patent publication US7141560B2, “Alanine 2,6-dialkoxyphenyl ester derivatives as hypnotics” (Akzo Nobel N.V., priority 2001, dated 2006).

The first experiment concerns mice. As to the kind of experiment: Hypnotic activity: loss of righting reflex after intravenous injection in mice. The class given is in vivo. The conditions noted are these: Mus musculus, intravenous injection over 10 seconds, dose causing loss of righting reflex for minimum 30 seconds in 50% of treated mice, read-out: HD50 (hypnotic dose50). The procedure:
The hypnotic potency of the alanine 2,6-dialkoxyphenyl ester derivatives of the invention was determined upon their intravenous administration in mice. The dose required to cause a loss of righting reflex for a minimum period of 30 seconds in 50% of treated mice after intravenous injection over 10 seconds was determined. This dose is termed the HD50 (hypnotic dose50) and is expressed in μmol.kg^−1. These in vivo experiments were carried out as described in detail by Anderson et al., J. Med. Chem. 1997, 40, 1668–1681.
With `COc1cccc(OC)c1OC(=O)C(CN1CCOCC1)N1CCSCC1` (centres unmarked) [Example 19a, 3-(4-Morpholinyl)-2-(N-thiomorpholinyl)propanoic acid, 2,6-dimethoxyphenyl ester], the ED50 turned out to be 17 µmol/kg.
Turning to `CCOCCC(C(=O)Oc1c(OC)cccc1OC)N1CCOCC1` (centres unmarked) [Example 10o, 4-Ethoxy-2-[4-morpholinyl]butyric acid, 2,6-dimethoxyphenyl ester], the ED50 came to 36 µmol/kg.
Consider `COCC(C(=O)Oc1c(OC)cc(C)cc1OC)N1CCSCC1` (centres unmarked) [Example 3j, 3-Methoxy-2-[N-thiomorpholinyl]propionic acid, 2,6-dimethoxy-4-methylphenyl ester], for which the ED50 was 42 µmol/kg.
For the compound `COCCN(C)C(COC)C(=O)Oc1c(OC)cc(C)cc1OC` (centres unmarked) [Example 3l, 3-Methoxy-2-[N-(2-Methoxyethyl)methylamino]propionic acid, 2,6-dimethoxy-4-methylphenyl ester], the ED50 was 58 µmol/kg.
Still for that read-out and setting: to `COCC(C(=O)Oc1c(OC)cc(C)cc1OC)N1CCCC1` (centres unmarked) [Example 3n, 3-Methoxy-2-[1-pyrrolidinyl]propionic acid, 2,6-dimethoxy-4-methylphenyl ester] belongs 34 µmol/kg; to `CCOCCC(C(=O)Oc1c(OC)cc(C)cc1OC)N1CCOCC1` (centres unmarked) [Example 10t, 4-Ethoxy-2-[4-morpholinyl]butyric acid, 2,6-dimethoxy-4-methylphenyl ester], 36 µmol/kg; to `COc1cccc(OC)c1OC(=O)C(CN1CCOCC1)N1CCOCC1` (centres unmarked) [Example 18c, 2,3-Di-(4-morpholinyl)propanoic acid, 2,6-dimethoxyphenyl ester], 31 µmol/kg.

The experiment is the same for the next values; noted with them: intravenous injection over 10 seconds, dose causing loss of righting reflex for minimum 30 seconds in 50% of treated mice.
As to `CCOCCC(C(=O)Oc1c(OC)cccc1OC)N1CCCOCC1` (centres unmarked) [Example 10p, 4-Ethoxy-2-[4-(hexahydro-1-oxazepinyl)]butyric acid, 2,6-dimethoxyphenyl ester], the “HD50 (hypnotic dose50)” value was 23 µmol/kg.
`COc1cccc(OC)c1OC(=O)C(CN1CCOCC1)N1CCOC[C@H]1C(C)C` (some centres unmarked) [Example 19h]: the “HD50 (hypnotic dose50)” value was found to be 21 µmol/kg.
For “2-[N-(Hexahydroazepinyl)]-3-methoxypropionic acid, 2,6-dimethoxyphenyl ester [Example 3d]”, the “HD50 (hypnotic dose50)” value stood at 22 µmol/kg.
Turning to `COCCC(C(=O)Oc1c(OC)cc(C)cc1OC)N1CCC(OC)CC1` (centres unmarked) [Example 10k, 4-Methoxy-2-[1-(4-methoxypiperidinyl)]butyric acid, 2,6-dimethoxy4-methylphenyl ester], the “HD50 (hypnotic dose50)” value was 34 µmol/kg.
As to `CCOCCN(CCOCC)C(COC)C(=O)Oc1c(OC)cc(C)cc1OC` (centres unmarked) [Example 3q, 2-[N-Bis(2-ethoxyethyl)amino]-3-methoxypropionic acid, 2,6-dimethoxy-4-methylphenyl ester], the “HD50 (hypnotic dose50)” value amounted to 23 µmol/kg.
Take `COc1cccc(OC)c1OC(=O)C(CCN1CCOC(C)(C)C1)N1CCOC(C)(C)C1` (centres unmarked) [Example 21b]: the “HD50 (hypnotic dose50)” value stood at 25 µmol/kg.
As for `COCCN(CCOC)C(COC)C(=O)Oc1c(OC)cc(C)cc1OC` (centres unmarked) [Example 51d, (ξ)-2-[N-Bis(2-methoxyethyl)amino]-3-methoxypropionic acid, 2,6-dimethoxy-4-methylphenyl ester], the “HD50 (hypnotic dose50)” value was 36 µmol/kg.
On to `COCCN(CCOC)C(COC)C(=O)Oc1c(OC)cc(C)cc1OC` (centres unmarked) [Example 3i, 2-[N-Bis(2-methoxyethyl)amino]-3-methoxypropionic acid, 2,6-dimethoxy-4-methylphenyl ester], for which the “HD50 (hypnotic dose50)” value is 28 µmol/kg.
Take `COCCC(C(=O)Oc1c(OC)cccc1OC)N1CCCOCC1` (centres unmarked) [Example 51a, (ξ)-2-[4-(Hexahydro-1-oxazepinyl)]-4-methoxybutyric acid,2,6-dimethoxyphenyl ester]: the “HD50 (hypnotic dose50)” value worked out at 15 µmol/kg.
Consider `CCOCC(C(=O)Oc1c(OC)cccc1OC)N1CCCOCC1` (centres unmarked) [Example 3r, 3-Ethoxy-2-[4-(Hexahydro-1-oxazepinyl)]propionic acid, 2,6-dimethoxyphenyl ester], for which the “HD50 (hypnotic dose50)” value is 20 µmol/kg.
For `COC(=O)CC(C(=O)Oc1c(OC)cc(C)cc1OC)N1CCOCC1` (centres unmarked) [Example 26b, Butanedioic, 2-(4-morpholinyl)-, 1-(2,6-dimethoxy-4-methylphenyl)ester, 4-methyl ester], the “HD50 (hypnotic dose50)” value was determined as 46 µmol/kg.
For `COCCC(C(=O)Oc1c(OC)cccc1OC)N1CCC(OC)CC1` (centres unmarked) [Example 10d, 4-Methoxy-2-[1-(4-methoxypiperidinyl)]butyric acid, 2,6-dimethoxyphenyl ester], the “HD50 (hypnotic dose50)” value was 21 µmol/kg.
As for `COCCC(C(=O)Oc1c(OC)cccc1OC)N1CCCCCC1` (centres unmarked) [Example 10e, 2-[1-(Hexahydroazepinyl)]-4-methoxybutyric acid, 2,6-dimethoxyphenyl ester], the “HD50 (hypnotic dose50)” value was determined as 17 µmol/kg.
Take `CCOCCN(CCOCC)C(COC)C(=O)Oc1c(OC)cccc1OC` (centres unmarked) [Example 3g, 2-[N-Bis(3-ethoxyethyl)amino]-3-methoxypropionic acid, 2,6-dimethoxyphenyl ester]: the “HD50 (hypnotic dose50)” value was 25 µmol/kg.
With `COCCC(C(=O)Oc1c(OC)cc(C)cc1OC)N1CCCCCC1` (centres unmarked) [Example 10n, 2-[1-(Hexahydroazepinyl)]-4-methoxybutyric acid, 2,6-dimethoxy-4-methylphenyl ester], the “HD50 (hypnotic dose50)” value turned out to be 38 µmol/kg.
Turning to `COCCC(C(=O)Oc1c(OC)cccc1OC)N1CC=CCC1` (centres unmarked) [Example 10c, 4-Methoxy-2-[1-(1,2,3,6-tetrahydropyridinyl)]butyric acid, 2,6-dimethoxyphenyl ester], the “HD50 (hypnotic dose50)” value came to 22 µmol/kg.
With `COCCCN(CCCOC)C(COC)C(=O)Oc1c(OC)cccc1OC` (centres unmarked) [Example 3f, 2-[N-Bis(3-methoxypropyl)amino]-3-methoxypropionic acid, 2,6-dimethoxyphenyl ester], the “HD50 (hypnotic dose50)” value turned out to be 46 µmol/kg.
`COC(=O)CC(C(=O)Oc1c(OC)cccc1OC)N1CCCCC1` (centres unmarked) [Example 28a, Butanedioic, 2-(1-piperidinyl)-, 1-(2,6-dimethoxyphenyl)ester, 4-methyl ester]: the “HD50 (hypnotic dose50)” value was 26 µmol/kg.
On the same count and under the same terms, the figure for `CCC1(C)CN(C(CN2CCOCC2)C(=O)Oc2c(OC)cccc2OC)CCO1` (centres unmarked) [Example 19f, 2-[4-(2-Ethyl-2-methylmorpholinyl)]-3-(4-morpholinyl)propanoic acid, 2,6-dimethoxyphenyl ester] is 21 µmol/kg; for `COc1cc(C)cc(OC)c1OC(=O)C(CCS(C)(=O)=O)N1CC=CCC1` (centres unmarked) [Example 43, Butanoic acid, 4-(methylsulphonyl)-2-(1-[1,2,3,6-tetrahydropyridinyl])-, 1-(2,6-dimethoxy-4-methylphenyl)ester] it is 39 µmol/kg.
Regarding `CCOCCC(C(=O)Oc1c(OC)cccc1OC)N(CCOC)CCOC` (centres unmarked) [Example 10r, 2-[N-(Bis(2-methoxyethyl)amino)]-4-ethoxybutyric acid, 2,6-dimethoxyphenyl ester], the “HD50 (hypnotic dose50)” value amounted to 27 µmol/kg.
Same read-out and setting: the figure for `COc1cccc(OC)c1OC(=O)C(CCSC)N1CCCCCC1` (centres unmarked) [Example 40c, Butanoic acid, 2-(1-hexahydroazepinyl)-4-(methylthio), 1-(2,6-dimethoxyphenyl)ester] is 18 µmol/kg.
In the case of `COCCN(CCOC)C(CCC(=O)OC)C(=O)Oc1c(OC)cccc1OC.Cl` (centres unmarked) [Example 48, Pentanedioic acid, 2-[bis-(2-methoxyethyl)amino]-, 1-(2,6-dimethoxyphenyl)ester, 5-methyl ester hydrochloride (1:1) salt], the “HD50 (hypnotic dose50)” value is 37 µmol/kg.
As for `COc1cc(C)cc(OC)c1OC(=O)C(CCSC)N1CCOCC1` (centres unmarked) [Example 39a, Butanoic acid, 4-(methylthio)-2-(4-morpholinyl)-, 1-(2,6-dimethoxy-4-methylphenyl)ester], the “HD50 (hypnotic dose50)” value amounted to 35 µmol/kg.
With `COCCC(C(=O)Oc1c(OC)cccc1OC)N1CCCOCC1` (centres unmarked) [Example 10a, 2-[4-(Hexahydro-1-oxazepinyl)]-4-methoxybutyric acid, 2,6-dimethoxyphenyl ester], the “HD50 (hypnotic dose50)” value was determined as 15 µmol/kg.
Turning to `COCCC(C(=O)Oc1c(OC)cc(C)cc1OC)N(CCOC)CCOC` (centres unmarked) [Example 10l, 2-[N-(Bis(2-methoxyethyl)amino)]-4-methoxybutyric acid, 2,6-dimethoxy-4-methylphenyl ester], the “HD50 (hypnotic dose50)” value is 26 µmol/kg.
`COC(=O)CCC(C(=O)Oc1c(OC)cc(C)cc1OC)N1CCCCC1.Cl` (centres unmarked) [Example 49b, Pentanedioic acid, 2-(1-piperidinyl)-, 1-(2,6-dimethoxy-4-methylphenyl)ester, 5-methyl ester hydrochloride (1:1) salt]: the “HD50 (hypnotic dose50)” value was found to be 47 µmol/kg.
In the case of `COC[C@@H](C(=O)Oc1c(OC)cccc1OC)N1CCCOCC1` [Example 52b, 2S-[4-(Hexahyro-1-oxazepinyl)]-3-methoxypropionic acid ,2,6-dimethoxyphenyl ester], the “HD50 (hypnotic dose50)” value was determined as 40 µmol/kg.
`CCOCCC(C(=O)Oc1c(OC)cccc1OC)N(CCOCC)CCOCC` (centres unmarked) [Example 10s, 2-[N-(Bis(2-ethoxyethyl)amino)]-4-ethoxybutyric acid, 2,6-dimethoxyphenyl ester]: the “HD50 (hypnotic dose50)” value came out at 47 µmol/kg.
For the compound `COCC(C(=O)Oc1c(OC)cc(C)cc1OC)N1CCCOCC1` (centres unmarked) [Example 3m, 2-[4-(Hexahydro-1-oxazepinyl)]-3-methoxypropionic acid, 2,6-dimethoxy-4-methylphenyl ester], the “HD50 (hypnotic dose50)” value came out at 31 µmol/kg.
As for `COC(=O)CC(C(=O)Oc1c(OC)cc(C)cc1OC)N1CCCCC1` (centres unmarked) [Example 28b, Butanedioic, 2-(1-piperidinyl)-, 1-(2,6-dimethoxy-4-methylphenyl)ester, 4-methyl ester], the “HD50 (hypnotic dose50)” value was found to be 48 µmol/kg.
